Here are results for two compounds from patent publication US20220356163A1, “SMALL MOLECULE INHIBITORS OF Id PROTEINS” (MEMORIAL SLOAN KETTERING CANCER CENTER, priority 2019, published 2022).

The nature of data set [1]: Pharmacokinetics in serum after i.p. injection. Type of data set: in vivo, mouse. Here is the method:
Pharmacokinetic analyses. To determine the pharmacokinetic parameters of AGX51, eight-week old male Balb/c mice (Taconic farms) were dosed once by i.p. injection with 30 mg/kg, 50 mg/kg or 100 mg/kg AGX51 prepared in 70% DMSO (n=3 mice per group). Another set of three mice was dosed with 100 mg/kg AGX51 prepared in 100% DMSO. Blood was collected at 30 minutes, 1 hour, 3 hours, 6 hours and 24 hours post AGX51 administration and plasma analyzed via LC-MS as per the protocol previously validated in the MSKCC Antitumor Assessment Core Facility. Following blood collection, the mice were sacrificed via CO2 asphyxiation and the eyes from the 30 mg/kg treatment group were collected and flash frozen for analysis. Data obtained from LC-MS was analyzed via WinNonLin software (version 8.1) for pharmacokinetic parameters.
The determination of the feasibility of administering AGX51 systemically for the treatment of ocular retinopathies was next explored. To determine the half-life of AGX51 in serum, mice were treated by intraperitoneal (i.p.) injection with a single dose of 30 mg/kg or 50 mg/kg AGX51 in 70% DMSO and blood was collected over a 24-hour period. […] Thus, 70% formulations were used in all future studies.

The subject of data set [2] is MDA-MB-361. Description: MTT assay, MDA-MB-361. Type of data set: cell-based. Conditions: MDA-MB-361, HER-2 +ve cell line, 24 hours. The text has this:
The 4T1 murine mammary tumor cell line and nine breast cancer cell lines representing the major breast cancer subtypes (ER+, HER2+, and TNBC) including MDA-MB-157, MDA-MB-436, MDA-MB-231, MDA-MB-453, MDA-MB-361, BT-474, SK-BR-3, MCF-7 and T47-D will be grown in RPMI or DMEM (Dulbecco's Modified Eagle Medium) media supplemented with 10% FBS (fetal bovine serum), 1% penicillin-streptomycin and 1% L-Glutamine. Patient derived xenograft cell lines BR7, BR11, and IBT will be established directly from breast cancer bone metastases specimens surgically resected from patients with informed consent. BR7 and BR11 specimens will be obtained from ER positive (HER2 negative and PR negative) metastatic breast cancer patients, while the IBT specimen will be obtained from a metastatic, triple negative breast cancer patient. Fresh tumor tissues will be quickly washed with ice cold PBS and minced into about 1-3 mm pieces in MEM medium (without FBS) using sterile razor blades. […] The cells will be treated with either 100 μM DMSO, AGX51, or a compound of the present technology such as AGX-A. The cell morphology and growth will be monitored daily for 1 week by microscopy for changes in morphology or cell death. […] Absorbance will then measured at 570 nm using a plate reader (Synergy 2, BioTek). […]

Data set [3] deals with PDX RomeP_PHCH_X_0008a. Description: Murine PDX model of cholangiocarcinoma, Round 1 (AGX-A in DMSO). It is filed as in vivo, mouse. Here is the method:
A first round of the study (“Round 1”) was planned as indicated in the Round 1 Study Protocol blow, utilizing gemcitabine in saline and AGX-A in DMSO for administration. • Mice: NSG females, 6-8 weeks old • […], serially transplanted sc with matrigel • Treatment Groups (at least 6 animals/group): treatments started when tumors reached 100 mm^3 (“Day 0” for each animal) • Group 1. Saline, i.p. once a week (“QW”) for 3-4 weeks (“×3-4 weeks”) • Group 2. Gemcitabine 25 mg/kg i.p. QW×3-4 weeks • Group 3. AGX-A 10 mg/kg i.p. once a day for 5 consecutive days (“QD×5”)×3-4 weeks • Group 4. Gemcitabine 25 mg/kg […] 10 mg/kg i.p. QD×5×3-4 weeks Tumor volumes, weights, and clinical signs were monitored a minimum of twice per week for each animal in each group throughout the study. In the Round 1 study, it was observed that animal weight in Groups 1 and 2 was essentially unchanged for the duration of the study. […] Because of this, treatment in Groups 3 and 4 was halted after Day 9 while tumor volumes, weights, and clinical signs continued to be monitored a minimum of twice per week for each subject in each group. Subsequently, the animals in Groups 3 and 4 stopped loosing weight and instead started regaining weight. Meanwhile, treatment in Groups 1 and 2 continued as planned. Due to the alterations in the planned study, Round 1 was concluded at Day 20.

Where “and” joins values, the source holds several entries; their conditions need not be identical. Equal values may be shown once.

In the case of `CCC(=O)N(CCC(c1ccc2c(c1)OCO2)c1ccccc1OC)Cc1ccccc1` (racemic) [AGX51, N-(3-(benzo[d][1,3]dioxol-5-yl)-3-(2-methoxyphenyl)propyl)-N-benzylpropionamide], the “mean maximum serum concentration” value was 1.1 μg/mL and 2.7 μM in data set [1] (30 mg/kg i.p., 70% DMSO); 1.6 μg/mL and 4 μM in data set [1] (50 mg/kg i.p., 70% DMSO). In addition, in data set [1] (100 mg/kg i.p., 70% DMSO), the “mean maximum serum concentration vs lower doses” value is on record as “not increased further”. The compound further gave a mean serum concentration in data set [1] (100 mg/kg i.p., 100% DMSO) of approximately 12 µM. In data set [2], the “percentage at 60 μM (IC50 NA)” value is given as “NA (60 μM = 53%)”.
As to `COc1ccccc1C(CCNCc1ccccc1)c1ccc(OC(C)C)cc1` (stereo not shown) [AGX-A, N-benzyl-3-(4-isopropoxyphenyl)-3-(2-methoxyphenyl)propan-1-anine], the tumor volume result in data set [3] (AGX-A 10 mg/kg i.p. QD×5 in DMSO, treatment discontinued at 9 days, vs gemcitabine 25 mg/kg QW) was “performs better than the SOC drug gemcitabine”. In data set [3] (AGX-A in DMSO, Groups 3 and 4), the animal weight entry is reported as “weight loss was observed”.
